Reference: patent US20230295201A1 (Gilead Sciences, Inc., priority 2020, published 2023)
Like-named read-outs stand apart in the source and are kept apart here.

Columns and labels:
Type in all cases: cell-based
[1] = test system: Dengue serotype 2 New Guinea C (NGC) strain; assay: DENV-2 Huh-7 EC50 (qPCR in Huh7 cells)
Summary of the method: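 Huh7 cells infected 2 h at 37 °C with DENV-2 NGC at MOI 0.1, then plated with graded compound doses (0.25% DMSO) in triplicate. After 48 h, viral RNA quantified by duplex TaqMan RT-qPCR against GAPDH; EC50 normalized to positive control and no-compound wells.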

HCV replicon 1B = assay: HCV Rep 1B EC50 (replicon luciferase)
Description: (§1) Compounds were serially diluted in ten steps of 1:3 dilutions in 384-well plates. All serial dilutions were performed in four replicates per compound within the same 384-well plate. […] To each well of a black polystyrene 384-well plate (Greiner Bio-one, Monroe, NC), 90 μL of cell culture medium (without Geneticin) containing 2000 suspended HCV replicon cells was added with a Biotek μFlow workstation. For compound transfer into cell culture plates, 0.4 μL of compound solution from the compound serial dilution plate was transferred to the cell culture plate on a Biomek FX workstation. The DMSO concentration in the final assay wells was 0.44%. The plates were incubated for 3 days at 37° C. with 5% CO2 and 85% humidity. The HCV replicon assay was a multiplex assay, able to assess both cytotoxicity and antireplicon activity from the same well. The CC50 assay was performed first. The media in the 384-well cell culture plate was aspirated, and the wells were washed four times with 100 μL of PBS each, using a Biotek ELX405 plate washer. A volume of 50 μL of a solution containing 400 nM calcein AM (Anaspec, Fremont, CA) in 1×PBS was added to each well of the plate with a Biotek μFlow workstation. The plate was incubated for 30 min at room temperature before the fluorescence signal (excitation 490 nm, emission 520 nm) was measured with a Perkin-Elmer Envision plate reader. The EC50 assay was performed in the same wells as the CC50 assay. The calcein-PBS solution in the 384-well cell culture plate was aspirated with a Biotek ELX405 plate washer. A volume of 20 μL of Dual-Glo luciferase buffer (Promega, Madison, WI) was added to each well of the plate with a Biotek μFlow Workstation. The plate was incubated for 10 min at room temperature. A volume of 20 μL of a solution containing a 1:100 mixture of Dual-Glo Stop & Glo substrate (Promega, Madison, WI) and Dual-Glo Stop & Glo buffer (Promega, Madison, WI) was added to each well of the plate with a Biotek μFlow Workstation. The plate was then incubated at room temperature for 10 min before the luminescence signal was measured with a Perkin-Elmer Envision Plate Reader.

HCV replicon 2A = assay: HCV Rep 2A EC50 (replicon luciferase)
Description: as §1

[2] = test system: Dengue 2, New Guinea strain (NGC); assay: DENV-2 moDC EC50 (qPCR in human monocyte-derived dendritic cells); conditions: moDCs
Description: Human monocyte-derived dendritic cells (moDCs) were derived from CD14+ monocytes (AllCells) cultured in Human Mo-DC Differentiation medium containing GM-CSF and IL-4 (Miltenyi Biotec). On day 7, moDCs were harvested by mechanical disruption, washed and suspended in serum-free RPMI. moDCs were infected with Vero-derived Dengue 2, New Guinea strain (NGC) at a MOI=0.1 for two hours in serum-free RPMI with gentle agitation at 37° C. Cells were washed and resuspended in 10% serum-containing RPMI (Gibco, supplemented with sodium pyruvate, NEAA, Penicillin-Streptomycin). 10^5 cells were plated in triplicate in 96-well plates with compounds dispensed at graded doses (Hewlett-Packard D300 Digital Dispenser). All wells were normalized to 0.25% DMSO. At 48 hours, cells were washed with 1×PBS and all supernatants removed. Total RNA was extracted using RNEasy 96 plates (Qiagen) and used to generate first-strand cDNA using XLT cDNA 5× Supermix (QuantaBio). cDNA was used as a template in a Taqman qPCR duplex reaction specific to DENV2 viral and GAPDH gene expression. EC50 values were determined using Prism Graphpad software, with normalization to a positive control and no compound negative control wells.

[3] = Dengue virus, DENV2, Huh-7, 48 h
[4] = Hepatitis C virus, 72 h, read-out: HCV Rep 1B EC50, replicon cells, 3 days
[5] = Hepatitis C virus, 72 h, read-out: HCV Rep 2A EC50, replicon cells, 3 days
[6] = Dengue virus, DENV2, Dendritic cell, 48 h
[7] = read-out: HCV Rep 1B EC50, replicon cells, 3 days
[8] = read-out: HCV Rep 2A EC50, replicon cells, 3 days

| SMILES | EC50 [1, 3] [nM] | EC50 (HCV replicon 1B; [4]) [nM] | EC50 (HCV replicon 2A; [5]) [nM] | EC50 [2, 6] [nM] | also measured |
| --- | --- | --- | --- | --- | --- |
| CCCCCCCCCCCC(=O)OCCNP(=O)(OC[C@@]1(C#N)O[C@@H](c2ccc3c(N)ncnn23)[C@H](O)[C@@H]1O)Oc1ccccc1 (mixture of isomers) [Example 181, 2-(((((2R,3S,4R,5S)-5-(4-aminopyrrolo[2,1-f][1,2,4]triazin-7-yl)-2-cyano-3,4-dihydroxytetrahydrofuran-2-yl)methoxy)(phenoxy)phosphoryl)amino)ethyl dodecanoate] | 795 | 861 | 1680 |  |  |
| C[C@H](N[P@](=O)(OC[C@@]1(C#N)O[C@@H](c2ccc3c(N)ncnn23)[C@H](O)[C@@H]1O)Oc1ccccc1)C(=O)OC1CCCCC1 (single isomer, unassigned) [Example 6] | 1630 | 793 | 1270 | > 6190 |  |
| C[C@H](N[P@](=O)(OC[C@@]1(C#N)O[C@@H](c2ccc3c(N)ncnn23)[C@H](O)[C@@H]1O)Oc1ccccc1)C(=O)O[C@H]1CC[C@H](C(F)(F)F)CC1 (single isomer, unassigned) [Example 18] |  | 1110 | 1480 |  |  |
| C[C@H](N[P@](=O)(OC[C@@]1(C#N)O[C@@H](c2ccc3c(N)ncnn23)[C@H](O)[C@@H]1O)Oc1ccccc1)C(=O)O[C@H]1CC[C@H](C(C)(C)C)CC1 (single isomer, unassigned) [Example 22] | 665 |  |  |  |  |
| CCC(CC)COC(=O)[C@H](C)N[P@](=O)(OC[C@@]1(C#N)O[C@@H](c2ccc3c(N)ncnn23)[C@H](O)[C@@H]1O)Oc1ccccc1 (single isomer, unassigned) [Example 25] | 840 | 443 | 448 | 524 |  |
| C[C@H](NP(=O)(OC[C@@]1(C#N)O[C@@H](c2ccc3c(N)ncnn23)[C@H](O)[C@@H]1O)Oc1ccccc1)C(=O)OCC1CCCCC1 (single isomer, unassigned) [Example 247] | 1280 | 665 | 1680 |  |  |
| C[C@H](NP(=O)(OC[C@@]1(C#N)O[C@@H](c2ccc3c(N)ncnn23)[C@H](O)[C@@H]1O)Oc1ccccc1)C(=O)OCC1CCCCC1 (single isomer, unassigned) [Example 248] |  |  |  |  | EC50 ([1]; 48 hours): 756 nM; EC50 (HCV replicon 1B; [7]): 503 nM; EC50 (HCV replicon 2A; [8]): 1180 nM |
| C[C@H](NP(=O)(OC[C@@]1(C#N)O[C@@H](c2ccc3c(N)ncnn23)[C@H](O)[C@@H]1O)Oc1ccccc1)C(=O)OCCC(C)(C)C (single isomer, unassigned) [Example 252] | 697 | 624 | 1650 | 284 |  |
| C[C@H](NP(=O)(OC[C@@]1(C#N)O[C@@H](c2ccc3c(N)ncnn23)[C@H](O)[C@@H]1O)Oc1ccccc1)C(=O)OCCC(C)(C)C (single isomer, unassigned) [Example 253] |  |  |  |  | EC50 ([2]; 48 hours): 429 nM; EC50 ([1]; 48 hours): 489 nM; EC50 (HCV replicon 1B; [7]): 452 nM; EC50 (HCV replicon 2A; [8]): 887 nM |
| CCOC(=O)[C@H](C)N[P@](=O)(OC[C@@]1(C#N)O[C@@H](c2ccc3c(N)ncnn23)[C@H](O)[C@@H]1O)Oc1ccccc1 [Example 29, Ethyl ((S)-(((2R,3S,4R,5S)-5-(4-aminopyrrolo[2,1-f][1,2,4]triazin-7-yl)-2-cyano-3,4-dihydroxytetrahydrofuran-2-yl)methoxy)(phenoxy)phosphoryl)-L-alaninate] | 1880 |  |  | > 5000 |  |
| COC(=O)[C@H](C)N[P@](=O)(OC[C@@]1(C#N)O[C@@H](c2ccc3c(N)ncnn23)[C@H](O)[C@@H]1O)Oc1ccccc1 [Example 52, methyl ((S)-(((2R,3S,4R,5S)-5-(4-aminopyrrolo[2,1-f][1,2,4]triazin-7-yl)-2-cyano-3,4-dihydroxytetrahydrofuran-2-yl)methoxy)(phenoxy)phosphoryl)-L-alaninate] | 5480 | 3960 | 7460 |  |  |
| C[C@H](N[P@](=O)(OC[C@@]1(C#N)O[C@@H](c2ccc3c(N)ncnn23)[C@H](O)[C@@H]1O)Oc1ccccc1)C(=O)OCC(C)(C)C [Example 94] |  |  |  |  | EC50 ([2]; 48 hours): 398 nM; EC50 ([1]; 48 hours): 451 nM; EC50 (HCV replicon 1B; replicon cells, 3 days, read-out: HCV Rep 1B EC50): 278 nM; EC50 (HCV replicon 2A; replicon cells, 3 days, read-out: HCV Rep 2A EC50): 493 nM |
| CCCCCCCCCCCCCCCCOCCCOP(=O)(O)OC[C@@]1(C#N)O[C@@H](c2ccc3c(N)ncnn23)[C@H](O)[C@@H]1O [Example 149, ((2R,3S,4R,5S)-5-(4-aminopyrrolo[2,1-f][1,2,4]triazin-7-yl)-2-cyano-3,4-dihydroxytetrahydrofuran-2-yl)methyl (3-(hexadecyloxy)propyl) hydrogen phosphate] |  |  |  |  | EC50 (HCV replicon 1B; Hepatitis C virus, 72 h, replicon cells, 3 days, read-out: HCV Rep 1B EC50): 31100 nM; EC50 (HCV replicon 2A; Hepatitis C virus, 72 h, replicon cells, 3 days, read-out: HCV Rep 2A EC50): > 44400 nM |
| CCCCCCCCCCCCOC(=O)[C@H](C)NP(=O)(OC[C@@]1(C#N)O[C@@H](c2ccc3c(N)ncnn23)[C@H](O)[C@@H]1O)Oc1ccccc1 (stereo partly drawn) [Example 191, dodecyl ((((2R,3S,4R,5S)-5-(4-aminopyrrolo[2,1-f][1,2,4]triazin-7-yl)-2-cyano-3,4-dihydroxytetrahydrofuran-2-yl)methoxy)(phenoxy)phosphoryl)-L-alaninate] | 13300 | 19700 | 34100 | 1070 |  |
| CCCCCCOC(=O)[C@H](C)NP(=O)(OC[C@@]1(C#N)O[C@@H](c2ccc3c(N)ncnn23)[C@H](O)[C@@H]1O)Oc1ccccc1 (stereo partly drawn) [Example 192, hexyl ((((2R,3S,4R,5S)-5-(4-aminopyrrolo[2,1-f][1,2,4]triazin-7-yl)-2-cyano-3,4-dihydroxytetrahydrofuran-2-yl)methoxy)(phenoxy)phosphoryl)-L-alaninate] | 2760 |  |  | 534 |  |
| C[C@H](NP(=O)(OC[C@@]1(C#N)O[C@@H](c2ccc3c(N)ncnn23)[C@H](O)[C@@H]1O)Oc1cccc2ccccc12)C(=O)OC1CCCCC1 (stereo partly drawn) [Example 203, cyclohexyl ((((2R,3S,4R,5S)-5-(4-aminopyrrolo[2,1-f][1,2,4]triazin-7-yl)-2-cyano-3,4-dihydroxytetrahydrofuran-2-yl)methoxy)(naphthalen-1-yloxy)phosphoryl)-L-alaninate] | 1730 | 332 | 671 | 599 |  |
| C[C@H](NP(=O)(OC[C@@]1(C#N)O[C@@H](c2ccc3c(N)ncnn23)[C@H](O)[C@@H]1O)Oc1ccccc1)C(=O)OCCC(C)(C)C (stereo partly drawn) [Example 251, 3,3-dimethylbutyl ((((2R,3S,4R,5S)-5-(4-aminopyrrolo[2,1-f][1,2,4]triazin-7-yl)-2-cyano-3,4-dihydroxytetrahydrofuran-2-yl)methoxy)(phenoxy)phosphoryl)-L-alaninate] | 529 | 595 | 1110 | 116 |  |
| CCC(C)(C)COC(=O)[C@H](C)NP(=O)(OC[C@@]1(C#N)O[C@@H](c2ccc3c(N)ncnn23)[C@H](O)[C@@H]1O)Oc1ccccc1 (stereo partly drawn) [Example 254, 2,2-dimethylbutyl ((((2R,3S,4R,5S)-5-(4-aminopyrrolo[2,1-f][1,2,4]triazin-7-yl)-2-cyano-3,4-dihydroxytetrahydrofuran-2-yl)methoxy)(phenoxy)phosphoryl)-L-alaninate] | 797 | 368 | 787 | 90 |  |
